The values that follow come from patent US8362011B2, “Tricyclic triazolic compounds” (Laboratories del Dr. Esteve, S.A., priority 2007, dated 2013).

Molecules are shown by their SMILES.

Usually melting point stands for the temperature, or range, at which the solid turns liquid.

In the case of `c1nnn2c1COC1CNC[C@H]12` (stereo partly shown), the melting point was 217 °C (dec.). Take `CCN1CC2OCc3cnnn3[C@@H]2C1` (stereo partly shown): the melting point lay in the range of 59 to 60 °C.

The compound `COc1ccc(CN2CC3OCc4cnnn4[C@@H]3C2)cc1` (stereo partly drawn) [Example 1, (5a,8a-trans)-7-(4-methoxybenzyl)-4,5a,6,7,8,8a-hexahydropyrrolo[3,4-b][1,2,3]triazolo[1,5-d][1,4]oxazine] displayed a melting point of 150 to 151 °C.

`CS(=O)(=O)N1CC2OCc3cnnn3[C@@H]2C1` (stereo partly drawn) [Example 14, (5a,8a-trans)-7-(methylsulfonyl)-4,5a,6,7,8,8a-hexahydropyrrolo[3,4-b][1,2,3]triazolo[1,5-d][1,4]oxazine]: the melting point was in the range of 204 to 206 °C. The value for `O=S(=O)(c1ccc(Br)cc1)N1CC2OCc3cnnn3[C@@H]2C1` (stereo partly drawn) [Example 15, (5a,8a-trans)-7-(4-bromophenylsulfonyl)-4,5a,6,7,8,8a-hexahydro pyrrolo[3,4-b][1,2,3]triazolo[1,5-d][1,4]oxazine] was 220 to 221 °C.

As to `O=S(=O)(c1ccccc1)N1CC2OCc3cnnn3[C@@H]2C1` (stereo partly drawn) [Example 16, (5a,8a-trans)-7-(phenylsulfonyl)-4,5a,6,7,8,8a-hexahydropyrrolo[3,4-b][1,2,3]triazolo[1,5-d][1,4]oxazine], the melting point is 168 to 170 °C. `O=S(=O)(c1ccccc1F)N1CC2OCc3cnnn3[C@@H]2C1` (stereo partly drawn) [Example 17, (5a,8a-trans)-7-(2-fluorophenylsulfonyl)-4,5a,6,7,8,8a-hexahydro pyrrolo[3,4-b][1,2,3]triazolo[1,5-d][1,4]oxazine] yielded a melting point of 178 to 180 °C. Regarding `O=S(=O)(c1ccc(F)cc1)N1CC2OCc3cnnn3[C@@H]2C1` (stereo partly drawn) [Example 18, (5a,8a-trans)-7-(4-fluorophenylsulfonyl)-4,5a,6,7,8,8a-hexahydro pyrrolo[3,4-b][1,2,3]triazolo[1,5-d][1,4]oxazine], the melting point lay within 208 to 209 °C. The compound `CS(=O)(=O)N1CC2OCc3c(-c4ccccc4)nnn3[C@@H]2C1` (stereo partly shown) [Example 19, (5a,8a)-7-(methylsulfonyl)-3-phenyl-4,5a,6,7,8,8a-hexahydropyrrolo[3,4-b][1,2,3]triazolo[1,5-d][1,4]oxazine] registered a melting point of 293 to 295 °C.

Regarding `O=S(=O)(c1ccc(F)cc1)N1CC2OCc3c(-c4ccccc4)nnn3[C@@H]2C1` (stereo partly drawn) [Example 20, (5a,8a-trans)-7-(4-fluorophenylsulfonyl)-3-phenyl-4,5a,6,7,8,8a-hexa hydropyrrolo[3,4-b][1,2,3]triazolo[1,5-d][1,4]oxazine], the melting point was 287 to 288 °C. The value for `O=C(c1ccccc1F)N1CC2OCc3cnnn3[C@@H]2C1` (stereo partly drawn) [Example 21, (2-fluorophenyl)((5a,8a-trans)-5a,6,8,8a-tetrahydropyrrolo[3,4-b][1,2,3]triazolo[1,5-d][1,4]oxazin-7(4H)-yl)methanone] was 188 to 190 °C; that for `O=C(c1ccccc1)N1CC2OCc3cnnn3[C@@H]2C1` (stereo partly drawn) [Example 22, phenyl((5a,8a-trans)-5a,6,8,8a-tetrahydropyrrolo[3,4-b][1,2,3]triazolo[1,5-d][1,4]oxazin-7(4H)-yl)methanone] was 173 to 174 °C; that for `O=C(CCc1ccccc1)N1CC2OCc3cnnn3[C@@H]2C1` (stereo partly drawn) [Example 24, 3-phenyl-1-((5a,8a-trans)-5a,6,8,8a-tetrahydropyrrolo[3,4-b][1,2,3]triazolo[1,5-d][1,4]oxazin-7(4H)-yl)propan-1-one] was 134 to 135 °C.

`O=C(c1cccs1)N1CC2OCc3cnnn3[C@@H]2C1` (stereo partly drawn) [Example 26, ((5a,8a-trans)-5a,6,8,8a-tetrahydropyrrolo[3,4-b][1,2,3]triazolo[1,5-d][1,4]oxazin-7(4H)-yl)(thiophen-2-yl)methanone] registered a melting point of 186 to 188 °C. For `O=C(c1ccccc1)N1CC2OCc3c(-c4ccccc4)nnn3[C@@H]2C1` (stereo partly drawn) [Example 27, phenyl((5a,8a-trans)-3-phenyl-5a,6,8,8a-tetrahydropyrrolo[3,4-b][1,2,3]triazolo[1,5-d][1,4]oxazin-7(4H)-yl)methanone] the value was 237 to 239 °C; for `O=C(c1cccs1)N1CC2OCc3c(-c4ccccc4)nnn3[C@@H]2C1` (stereo partly drawn) [Example 30, ((5a,8a-trans)-3-phenyl-5a,6,8,8a-tetrahydropyrrolo[3,4-b][1,2,3]triazolo[1,5-d][1,4]oxazin-7(4H)-yl)(thiophen-2-yl)methanone], 248 to 249 °C; for `CCCCNC(=O)N1CC2OCc3cnnn3[C@@H]2C1` (stereo partly drawn) [Example 31, (5a,8a-trans)-N-butyl-5a,6,8,8a-tetrahydropyrrolo[3,4-b][1,2,3]triazolo[1,5-d][1,4]oxazine-7(4H)-carboxamide], 194 to 195 °C. For `O=C(Nc1ccccc1)N1CC2OCc3cnnn3[C@@H]2C1` (stereo partly drawn) [Example 32, (5a,8a-trans)-N-phenyl-5a,6,8,8a-tetrahydropyrrolo[3,4-b][1,2,3] triazolo[1,5-d][1,4]oxazine-7(4H)-carboxamide] the value was 227 to 228 °C. For `O=C(Nc1ccccc1)N1CC2OCc3c(-c4ccccc4)nnn3[C@@H]2C1` (stereo partly drawn) [Example 33, (5a,8a-trans)-N,3-diphenyl-5a,6,8,8a-tetrahydropyrrolo[3,4-b][1,2,3] triazolo[1,5-d][1,4]oxazine-7(4H)-carboxamide] the value was 275 to 277 °C.

Turning to `O=C(OCc1ccccc1)N1CC2OCc3c(-c4ccccc4)nnn3[C@@H]2C1` (stereo partly drawn) [Example 34, (5a,8a-trans)-benzyl3-phenyl-5a,6,8,8a-tetrahydropyrrolo[3,4-b][1,2,3] triazolo[1,5-d][1,4]oxazine-7(4H)-carboxylate], the melting point lay in the range of 209 to 212 °C.

`c1cnc(N2CC3OCc4cnnn4[C@@H]3C2)nc1` (stereo partly drawn) [Example 35, (5a,8a-trans)-7-(pyrimidin-2-yl)-4,5a,6,7,8,8a-hexahydropyrrolo[3,4-b][1,2,3]triazolo[1,5-d][1,4]oxazine] returned a melting point of 256 to 257 °C.

In the case of `c1ccc(-c2nnn3c2COC2CN(c4ncccn4)C[C@H]23)cc1` (stereo partly drawn) [Example 40, (5a,8a-trans)-3-phenyl-7-(pyrimidin-2-yl)-4,5a,6,7,8,8a-hexahydro pyrrolo[3,4-b][1,2,3]triazolo[1,5-d][1,4]oxazine], the melting point was 256 to 257 °C. In turn, `c1ccc(N2CC3OCc4cnnn4[C@@H]3C2)cc1` (stereo partly drawn) [Example 42, (5a,8a-trans)-7-phenyl-4,5a,6,7,8,8a-hexahydropyrrolo[3,4-b][1,2,3] triazolo[1,5-d][1,4]oxazine] returned a melting point of 222 to 223 °C. As for `Clc1ccc(N2CC3OCc4cnnn4[C@@H]3C2)cc1` (stereo partly drawn) [Example 43, (5a,8a-trans)-7-(4-chlorophenyl)-4,5a,6,7,8,8a-hexahydropyrrolo[3,4-b][1,2,3]triazolo[1,5-d][1,4]oxazine], the melting point is 238 °C (dec.). Consider `c1ccc(N2CC3OCc4cnnn4[C@@H]3C2)nc1` (stereo partly drawn) [Example 44, (5a,8a-trans)-7-(pyridin-2-yl)-4,5a,6,7,8,8a-hexahydropyrrolo[3,4-b][1,2,3]triazolo[1,5-d][1,4]oxazine], for which the melting point is 216 °C (dec.).

`c1ccc(-c2nnn3c2COC2CN(c4ccccc4)C[C@H]23)cc1` (stereo partly drawn) [Example 45, (5a,8a-trans)-3,7-diphenyl-4,5a,6,7,8,8a-hexahydropyrrolo[3,4-b][1,2,3] triazolo[1,5-d][1,4]oxazine]: the melting point lay within 256 to 257 °C. As for `CC(C)(C)OC(=O)N1C[C@@H]2OCc3cnnn3[C@H]2C1` [Example 53, (5aS,8aS)-tert-butyl 5a,6,8,8a-tetrahydropyrrolo[3,4-b][1,2,3]triazolo[1,5-d][1,4]oxazine-7(4H)-carboxylate], the melting point lay within 155 to 157 °C.

The compound `Cc1nnn2c1CO[C@H]1CN(C(=O)OC(C)(C)C)C[C@@H]12` [Example 54, (5aS,8aS)-tert-butyl 3-methyl-5a,6,8,8a-tetrahydropyrrolo[3,4-b][1,2,3] triazolo[1,5-d][1,4]oxazine-7(4H)-carboxylate] yielded a melting point of 195 to 196 °C. For `CC(C)(C)OC(=O)N1C[C@@H]2OCc3c(-c4ccccc4)nnn3[C@H]2C1` [Example 55, (5aS,8aS)-tert-butyl 3-phenyl-5a,6,8,8a-tetrahydropyrrolo[3,4-b][1,2,3] triazolo[1,5-d][1,4]oxazine-7(4H)-carboxylate] the value was 236 to 237 °C. For `CC(C)(C)OC(=O)N1C[C@@H]2OCc3c(-c4cccc(F)c4)nnn3[C@H]2C1` [Example 56, (5aS,8aS)-tert-butyl 3-(3-fluorophenyl)-5a,6,8,8a-tetrahydropyrrolo[3,4-b][1,2,3]triazolo[1,5-d][1,4]oxazine-7(4H)-carboxylate] the value was 249 to 250 °C; for `CC(C)(C)OC(=O)N1CC2OCc3c(-c4ccc(C(F)(F)F)cc4)nnn3[C@H]2C1` (stereo partly drawn) [Example 57, (5aS,8aS)-tert-butyl-3-(4-(trifluoromethyl)phenyl)-5a,6,8,8a-tetrahydropyrrolo[3,4-b][1,2,3]triazolo[1,5-c][1,4]oxazine-7(4H)-carboxylate], 238 to 239 °C.
